Measured values taken from PubChem BioAssay (NCI).
Values joined by “and” are separate entries in the source; they are usually repeats but may differ in a detail not shown here. Equal entries are not always repeated.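 48-hour exposure; five concentrations; linearly interpolated endpoints. GI50 is the concentration that inhibits growth by half. TGI: total growth inhibition.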

Experiments:
Experiment in all cases: NCI-60 cell line screen, 48 h
OVCAR-5 ovarian = system: OVCAR-5 ovarian
SN12C renal = system: SN12C renal
M14 melanoma = system: M14 melanoma
SR leukemia = system: SR leukemia
HT29 colon = system: HT29 colon
SNB-19 CNS = system: SNB-19 CNS
NCI-H460 lung = system: NCI-H460 lung
HL-60(TB) leukemia = system: HL-60(TB) leukemia
MDA-MB-231 breast = system: MDA-MB-231 breast
SK-MEL-2 melanoma = system: SK-MEL-2 melanoma

SMILES	GI50 (OVCAR-5 ovarian)	TGI (OVCAR-5 ovarian)	GI50 (SN12C renal)	TGI (SN12C renal)	GI50 (M14 melanoma)	TGI (M14 melanoma)	GI50 (SR leukemia)	TGI (SR leukemia) [µM]	GI50 (HT29 colon)	TGI (HT29 colon) [µM]	GI50 (SNB-19 CNS) [µM]	TGI (SNB-19 CNS)	GI50 (NCI-H460 lung)	TGI (NCI-H460 lung)	GI50 (HL-60(TB) leukemia)	TGI (HL-60(TB) leukemia)	GI50 (MDA-MB-231 breast)	TGI (MDA-MB-231 breast)	GI50 (SK-MEL-2 melanoma) [µM]	TGI (SK-MEL-2 melanoma) [µM]
CC1(C)[C@@H](OC(N)=O)[C@H]2O[C@H]2[C@]2(C=O)[C@H]3CC[C@]4(C)[C@@H](c5ccc(=O)oc5)[C@@H](Cl)C[C@]4(O)C3=CC[C@@H]12	0.00606 µM	0.0151 µM	0.0056 µM	0.0173 µM	0.00639 µM	0.0177 µM	0.00617 µM	0.0185	0.00581 µM	0.0125	0.00796	0.0219 µM	0.00347 µM	0.0077 µM	0.00557 µM	0.0131 µM	0.0109 µM	0.0556 µM	0.02	0.0692
O=C1NC(=O)C(CC2CCCCCCCCCCC2=O)C(=O)N1 (stereo not given)	–	> 100 µM	–	> 100 µM	–	> 100 µM	–	5.28	–	> 100	–	> 100 µM	–	> 100 µM	–	> 100 µM	–	> 100 µM	–	> 100
O=C1CSC(c2ccc(Cl)cc2Cl)N1c1ccc(F)cc1 (stereo not given)	16 µM	29.5 µM	16.7 µM	30.6 µM	15.2 µM	28.8 µM	19.6 µM	40.9	–	–	–	–	16 µM	29.9 µM	21.2 µM	45.6 µM	16.1 µM	30.4 µM	18.9	38
CC(=O)C(=CN1CCN(C(=O)c2ccco2)C1=S)C(C)=O	–	–	2.57 µM	7.11 µM	4.03 µM	15.4 µM	2.26 µM	> 100	17.1 µM	53.8	30.1	63.6 µM	1.5 µM	3.42 µM	5.79 µM	> 100 µM	2.62 µM	6.96 µM	3.34	8.52
COc1ccc(C(=O)COc2ccc(/C=C3\COc4ccc(OC)cc4C3=O)cc2)cc1	30.2 µM	86.9 µM	30.9 µM	> 100 µM	39.7 µM	> 100 µM	2.09 µM	5.91	22.2 µM	> 100	29.8	> 100 µM	57.5 µM	> 100 µM	11 µM	62.8 µM	30 µM	92.5 µM	37.5	> 100
CCc1nc(C(N)=O)c(Nc2ccc(N3CCC(N4CCN(C)CC4)CC3)c(OC)c2)nc1NC1CCOCC1	0.484 µM and 0.279 µM and 0.486 µM	14.5 µM and > 10 µM	0.545 µM and 0.247 µM and 0.491 µM	20.2 µM and > 10 µM and 17.5 µM	1.1 µM and 0.253 µM and 0.961 µM	16.4 µM and > 2.57 µM and 17.9 µM	< 0.0135 µM and 0.0021 µM and 0.013 µM	–	0.569 µM and 0.251 µM and 0.467 µM	> 43.8	–	20.2 µM and > 10 µM and 22.7 µM	1.37 µM and 0.501 µM and 1.27 µM	17.4 µM and > 10 µM and 19.5 µM	0.871 µM and 0.367 µM and 0.968 µM	11.3 µM and > 10 µM and 14.9 µM	3.38 µM and 0.829 µM and 3.52 µM	17.7 µM and > 10 µM and 17.2 µM	–	–
COc1cccc2c(=O)c3c(sc12)c(N1CCNCC1)nc1ccccc13	1.79 µM	3.24 µM	1.54 µM	3.06 µM	1.86 µM	3.48 µM	0.622 µM	> 100	1.46 µM	3.11	1.79	3.39 µM	1.72 µM	3.41 µM	–	–	1.7 µM	3.32 µM	1.94	3.88
CCCCON(OC(=O)c1ccc2ccc3cccc4ccc1c2c34)C(C)=O	23.2 µM	92 µM	19.6 µM	39.2 µM	22.7 µM	55.3 µM	13.2 µM	35.1	25 µM	74.9	34.3	> 100 µM	32.1 µM	> 100 µM	19.2 µM	44.2 µM	18.9 µM	40.2 µM	23.9	68.9
C=C1C(=O)OC2/C=C(\COC(C)=O)CCC(OC(C)=O)C3=CC(OC3=O)C12 (stereo not given)	–	33.3 µM	–	18.9 µM	–	10 µM	–	16.1	–	15.8	–	36.3 µM	–	37.8 µM	–	> 20.3 µM	–	41.7 µM	–	14.7
COc1cc2[nH]c(C(=O)c3cc(OC)c(OC)c(OC)c3)c(N)c2cc1C#CC1CC1	11.9 µM	> 100 µM	7.69 µM	> 100 µM	1.93 µM	> 100 µM	0.976 µM	> 100	3.38 µM	28	5.85	> 100 µM	3.55 µM	> 100 µM	3.36 µM	22 µM	3.9 µM	> 100 µM	5.14	> 100
O=C(O)C1C(Br)(c2ccccc2)C1(Br)c1ccccc1 (stereo not given)	–	> 100 µM	–	> 100 µM	–	> 100 µM	–	> 100	–	59	–	> 100 µM	–	> 100 µM	–	> 100 µM	–	> 100 µM	–	80.2
ClCC[N+]12CC[N+](CCCl)(CC1)C2	–	> 100 µM	–	> 100 µM	–	> 100 µM	–	> 100	–	> 100	–	> 100 µM	–	> 100 µM	–	> 100 µM	–	> 100 µM	–	> 100
CC/C=C\C[C@H]1C/C=C2/C(=O)C=C[C@@H]2C/C=C\CCCC(=O)O1	0.567 µM	2.53 µM	0.986 µM	4.34 µM	0.599 µM	3.7 µM	0.288 µM	–	0.376 µM	1.27	2.09	11.7 µM	2.16 µM	8.86 µM	0.439 µM	3.3 µM	2.76 µM	13.2 µM	1.86	4.87
CC1=C(O)C(=O)C=C2C1=CC=C1[C@@]2(C)CC[C@@]2(C)[C@@H]3C[C@](C)(C(=O)O)CC[C@]3(C)CC[C@]12C	–	0.332 µM	–	0.142 µM	–	0.141 µM	–	0.0336	–	0.145	–	0.23 µM	–	0.384 µM	–	0.0585 µM	–	0.0664 µM	–	0.219
CC(C)C[C@H](NC(=O)/C=C/Cn1ccc2ccccc2c1=O)B(O)O	4.36 µM	39.8 µM	6.32 µM	> 100 µM	2.92 µM	10.1 µM	0.887 µM	21.8	–	–	6.49	> 100 µM	12.7 µM	97.5 µM	2.95 µM	> 100 µM	2.85 µM	8.14 µM	3.12	23.5
